Data reported in patent US7914776B2, “Solid dispersions of opioid antagonists” (Adolor Corporation, priority 2005, dated 2011).
Entries after “also recorded” stand apart in the source; their conditions may differ. Where two headings read alike, the source gives them in different places.

Columns and labels:
[1] = type: physicochemical
Experimental: Amorphous samples were exposed to ambient, 53%, and 97% relative humidities at ambient temperature (about 10° C. to about 30° C.). The samples were also exposed to 75% relative humidity at 40° C. The samples were stressed for up to 60 days. Samples were taken periodically throughout the study and analyzed by x-ray powder diffraction (XRPD) for presence of crystallinity.
Relative humidity stress studies were performed to assess the stability of amorphous alvimopan and solid dispersions. Studies were performed at ambient, 53%, and 97% relative humidity at ambient temperature. Ambient relative humidity and temperature was measured as approximately 24% and 22° C. Samples were also stressed at 75% relative humidity at 40° C. Samples were analyzed by XRPD for the presence of crystallinity.

[2] = Moisture sorption analysis; type: physicochemical; settings: for XRPD after Moisture Sorption: solid remaining after moisture sorption analysis; for Moisture Sorption: weight lost upon desorption: between 95% and 5% RH
[3] = ambient conditions (approximately 24% relative humidity and 22° C.), 43 days stressed
[4] = listed as Amorphous [[2(S)-[[4(R)-(3-hydroxyphenyl)-3(R),4-dimethyl-piperidinyl]methyl]-1-, sodium salt
[5] = 53% Relative Humidity and Ambient Temperature, 7 days stressed
[6] = 53% Relative Humidity and Ambient Temperature, 17 days stressed
[7] = 53% Relative Humidity and Ambient Temperature, 30 days stressed
[8] = 53% Relative Humidity and Ambient Temperature, 60 days stressed
[9] = 97% Relative Humidity and Ambient Temperature, 7 days stressed
[10] = ambient conditions (approximately 24% relative humidity and 22° C.), 7 days stressed
[11] = ambient conditions (approximately 24% relative humidity and 22° C.), 17 days stressed
[12] = ambient conditions (approximately 24% relative humidity and 22° C.), 30 days stressed
[13] = 75% Relative Humidity and 40° C., 7 days stressed
[14] = ambient conditions (approximately 24% relative humidity and 22° C.), 60 days stressed
[15] = listed as Amorphous [[2(S)-[[4(R)-(3-hydroxyphenyl)-3(R),4-dimethyl-piperidinyl]methyl]-1-
[16] = listed as Amorphous Alvimopan Prepared by Rotary Evaporation
[17] = listed as rotary evaporated sample

| Compound | XRPD after Moisture Sorption [2, 4] | XRPD Result [1, 5] | XRPD Result [1, 6] | XRPD Result [1, 7] | XRPD Result [1, 8] | Observation [1, 9] | XRPD Result [1, 9] | XRPD Result [1, 10] | XRPD Result [1, 11] | Observation [1, 12] | XRPD Result [1, 12] | Stability conclusion of the stress studies [1] | XRPD Result [1, 13] | XRPD Result [1, 14] | further results |
| --- | --- | --- | --- | --- | --- | --- | --- | --- | --- | --- | --- | --- | --- | --- | --- |
| C[C@H]1CN(C[C@H](Cc2ccccc2)C(=O)NCC(=O)[O-])CC[C@@]1(C)c1cccc(O)c1.[Na+] [2:1 sodium carbonate attempt; lyophilized; 100° C. vac oven] [[[2(S)-[[4(R)-(3-hydroxyphenyl)-3(R),4-dimethyl-piperidinyl]methyl]-1-oxo-3-phenylpropyl]amino]acetic acid sodium salt] | deliquescence of the material; also recorded: sample deliquesced |  |  |  |  |  |  |  |  |  |  |  |  |  | XRPD Result ([1]; 53% Relative Humidity and Ambient Temperature, 13 days stressed): amorphous; XRPD Result ([1]; 53% Relative Humidity and Ambient Temperature, 43 days stressed): amorphous; Observation ([1]; 75% Relative Humidity and 40° C., 3 days stressed, sodium salt): deliquescence;; Outcome of stress ([1]; 97% relative humidity and ambient temperature, listed as 2:1 amorphous [[2(S)-[[4(R)-(3-hydroxyphenyl)-3(R),4-dimethyl-piperidinyl]methyl, sodium salt): deliquesced within three days of exposure; Observation ([1]; ambient conditions (approximately 24% relative humidity and 22° C.), 7 days stressed, sodium salt): off-white, yellow; XRPD Result ([1]; ambient conditions (approximately 24% relative humidity and 22° C.), 13 days stressed): amorphous + peak; XRPD Result ([1]; ambient conditions (approximately 24% relative humidity and 22° C.), 30 days stressed, sodium salt): amorphous + peak;; Observation [1, 3]: white and yellow; XRPD Result [1, 3]: amorphous + peak; Moisture Sorption: lost upon equilibration at 5% RH [2, 4]: 0.1% lost upon equilibration at 5% RH |
| C[C@H]1CN(C[C@H](Cc2ccccc2)C(=O)NCC(=O)[O-])CC[C@@]1(C)c1cccc(O)c1.[Na+] [[[2(S)-[[4(R)-(3-hydroxyphenyl)-3(R),4-dimethyl-piperidinyl]methyl]-1-oxo-3-phenylpropyl]amino]acetic acid sodium salt] | peak + amorphous | amorphous + peak | amorphous + peak | amorphous + peak | amorphous + peak | white solids; slight | Form A | amorphous + peak | amorphous + peak | off-white, yellow | amorphous + peak |  |  |  | Outcome of stress ([1]; 75% RH and 40° C.): deliquesced after three days of exposure; Outcome of stress ([1]; 97% relative humidity and ambient temperature): likely crystallized to Form A; Observation [1, 11]: off-white, yellow; Moisture Sorption: lost upon equilibration at 5% RH [2]: 2.8% lost upon equilibration at 5% RH |
| C[C@H]1CN(C[C@H](Cc2ccccc2)C(=O)NCC(=O)O)CC[C@@]1(C)c1cccc(O)c1 [lyophilized; 100° C. vac oven, [[2(S)-[[4(R)-(3-hydroxyphenyl)-3(R),4-dimethyl-piperidinyl]methyl]-1-oxo-3-phenylpropyl]amino]acetic acid] |  | amorphous | amorphous | amorphous | amorphous | off-white solids; some | Form A | amorphous | amorphous |  | amorphous | stable at 75% relative humidity and 40 °C | amorphous | amorphous | Outcome of stress ([1]; 75% RH and 40° C., listed as amorphous alvimopan sample prepared by lyophilization): Crystallization was not observed; XRPD Result ([1]; 75% Relative Humidity and 40° C., 17 days stressed): amorphous; XRPD Result ([1]; 75% Relative Humidity and 40° C., 30 days stressed): amorphous; XRPD Result ([1]; 75% Relative Humidity and 40° C., 60 days stressed): amorphous; Moisture Sorption: weight gain between 5% and 95% RH [2, 15]: 13.0% weight gain between 5% and 95% RH; Moisture Sorption: weight gain between 5% and 95% RH ([2]; listed as lyophilized sample): ~13%; Moisture Sorption: weight lost upon desorption [2, 15]: 10.8% weight lost upon desorption; Moisture Sorption: lost upon equilibration at 5% RH [2, 15]: 0.2% lost upon equilibration at 5% RH; XRPD after Moisture Sorption [2, 15]: amorphous; XRPD after Moisture Sorption ([2]; listed as lyophilized sample): remained amorphous |
| C[C@H]1CN(C[C@H](Cc2ccccc2)C(=O)NCC(=O)O)CC[C@@]1(C)c1cccc(O)c1 [ethanol roto evap at 30° C.; 100° C. vac oven] [[[2(S)-[[4(R)-(3-hydroxyphenyl)-3(R),4-dimethyl-piperidinyl]methyl]-1-oxo-3-phenylpropyl]amino]acetic acid] |  | amorphous | amorphous | amorphous | amorphous | white solids; some | Form A | amorphous | amorphous | white solids, flakes; | amorphous | showed crystallization under this same stress condition | PC; Form A | amorphous | Observation [1, 8]: white solids,; Outcome of stress ([1]; 75% RH and 40° C., listed as Amorphous [[2(S)-[[4(R)-(3-hydroxyphenyl)-3(R),4-dimethyl-piperidinyl]methyl]-1-): crystallized to alvimopan Form A; Observation [1, 13]: white solids;; Moisture Sorption: weight gain between 5% and 95% RH [2, 16]: 13.8% weight gain between 5% and 95% RH; Moisture Sorption: weight gain between 5% and 95% RH [2, 17]: ~13%; Moisture Sorption: weight lost upon desorption [2, 16]: 12.2% weight lost upon desorption; Moisture Sorption: lost upon equilibration at 5% RH [2, 16]: 0.6% lost upon equilibration at 5% RH; XRPD after Moisture Sorption [2, 16]: low crystalline; amorphous, Form A, or Form B; XRPD after Moisture Sorption [2, 17]: crystallized to low crystalline material |
